{"source": "patent US20100048604A1", "about": "“Ligands for Aldoketoreductases” (priority 2004, published 2010)", "key": {"AKR1C3": {"biological_target": "T1, AKR1C3 (Homo sapiens, UniProt P42330)", "T1 construct": "gift of Professor Trevor Penning (University of Pennsylvania School of Medicine)", "T1 sequence (P42330 1-323)": "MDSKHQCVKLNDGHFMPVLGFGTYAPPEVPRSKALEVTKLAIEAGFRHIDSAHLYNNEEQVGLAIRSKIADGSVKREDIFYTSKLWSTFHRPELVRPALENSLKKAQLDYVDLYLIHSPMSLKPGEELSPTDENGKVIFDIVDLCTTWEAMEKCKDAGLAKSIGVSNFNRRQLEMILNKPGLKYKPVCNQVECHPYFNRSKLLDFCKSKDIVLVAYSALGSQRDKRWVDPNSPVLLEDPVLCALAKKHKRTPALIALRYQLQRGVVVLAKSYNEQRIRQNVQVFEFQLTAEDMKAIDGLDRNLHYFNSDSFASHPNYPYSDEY", "test": "Determination of kinetic parameters for AKR1C3 (fluorogenic substrate 5)", "type": "biochemical", "method": "Whether the activity of human enzymes may be imaged by probe 5 was investigated. Type 2 isozyme of 3α-HSD (AKR 1C3) was selected for this study owing to its important physiological role.\nFluorogenic substrate 5 reduction was monitored on a Hitachi F-4500 fluorimeter in Starna quartz cuvettes fluorometrically in 1 mL systems containing 100 mM potassium phosphate pH 6.0 containing excess of NADPH cofactor (250 μM) and various amounts of the substrate (0.1953-50 μM) dissolved in 4% acetonitrile. […] Cuvettes were mixed thoroughly after addition of cofactor, cosolvent, and substrate. Reactions were initiated by the addition of 4 μL of dilute AKR1C3 (115 μg/mL) and were corrected for nonenzymatic rates. All reactions were followed by monitoring the increase in fluorescence of the product alcohol for 5 minutes at λem 510 nm with λex 440 nm (Excitation and emission band pass slits both at 2.5 nm, lamp 900 V) at 37° C. The initial velocities, expressed in units of nanomoles per minute, were calculated according to previously published procedures (Wierzchowski, J.; Dafeldecker, W. P.; Holmquist, B.; Vallee, B. L. Anal. Biochem. 1989, 178, 57-62): initial rate=[nst×(Ft−F0)/(Fst)]/t where Ft and F0 represent the fluorescence at time t and 0, nst is the nanomoles of the product standard, and Fst is the fluorescence resulting from nst of product. Kinetic constants were approximated using the GraFit (Erithacus Software, Surrey, UK) non-linear regression analysis program to fit the untransformed data to a hyperbolic function as originally described (Wilkinson, G. N. Biochem. J. 1961, 80, 324-332), yielding estimated values of kcat, Km, and their associated standard errors."}, "AKR1C1-AKR1C4": {"system": "AKR1C1-AKR1C4", "test": "Substrate tolerance and selectivity across the four human AKR1C isozymes", "type": "biochemical", "settings": "AKR1C1-AKR1C4, purified enzymes, NADPH", "excerpt": "AKR1C2 and AKR1C3 Selective Probes: Probes (5a-5i) were examined as substrates for the four purified human HSD isozymes (AKR1C1-AKR1C4) under standard assay conditions [catalytic quantities of enzyme, an excess of cofactor (NADPH)]. The initial reaction rates were used to derive standard kinetic parameters (kcat and Km, Materials and Methods).\nSubstrate tolerance of AKR1Cs: Isozyme Activity with 5a-5i: Activity of the second generation of fluorogenic substrates with the AKR1C isozymes was determined as follows. To a STARNA semi-micro fluorimeter cell (with 4 polished windows) was added 100 μL of 1 M potassium phosphate buffer (pH 6), 840 μL doubly deionized water, and 20 μL of 12.5 mM NADPH. After mixing the aqueous components thoroughly, 20 μL of acetonitrile was added as a cosolvent and mixed well. 20 μL of 2.5 mM second generation fluorogenic ketone in acetonitrile (5a-5i) was then added and mixed. 4 μL of undiluted AKR1C (provided generously by the Penning lab at concentrations of 2.5 mg/mL) were then added to the cuvette for a total of 10 μg purified enzyme in the 1 mL assay volume. Fluorescence arising from the respective alcohol reduction product was then monitored over the course of 5-10 minutes.\nBinding constant and catalytic rates (Km and kcat) of the second generation of fluorogenic substrates was determined as follows. To a STARNA semi-micro fluorometer cell (with 4 polished windows) was added 100 μL of 1 M potassium phosphate buffer (pH 6), 840 μL doubly deionized water, and 20 AL of 12.5 mM NADPH. After mixing the aqueous components thoroughly, 20 μL of acetonitrile was added as a cosolvent and mixed well. […] Fluorescence arising from the respective alcohol reduction product was then monitored over the course of 3 minutes (Excitation and emission band pass slits both at 4 nm, lamp 700 V, λexc 410 nm, λem 510). The rate of product formation, expressed in units of nanomoles per minute, were calculated according to previously published procedures (Wierzchowski, J.; Dafeldecker, W. P.; Holmquist, B.; Vallee, B. L. Anal. Biochem. 1989, 178, 57-62): […]"}, "[1]": {"settings": "100 mM potassium phosphate pH 6.0, 250 μM NADPH, 37° C."}, "[2]": {"settings": "Type 2 isozyme of 3α-HSD (AKR 1C3)"}}}
{"smiles": "CC(=O)c1cc(=O)oc2c3c4c(cc12)CCCN4CCC3", "note": "[compound 5, 8-Acetyl-2,3,5,6-tetrahydro-1H,4H-11-oxa-3a-aza-benzo[de]anthracen-10-one]", "values": [{"measurement": "Kcat", "setting": "AKR1C3; [1]", "value": 0.1374, "unit": "s⁻¹"}, {"measurement": "Km", "setting": "AKR1C3; [1]", "value": 2.46, "unit": "µM"}, {"measurement": "Spec. activity", "setting": "AKR1C3; [1]", "value": 0.226, "unit": "µmol/min/mg"}, {"measurement": "Vmax", "setting": "AKR1C3; [1]", "value": 0.1039, "unit": "nmol/min"}, {"measurement": "Kcat", "setting": "AKR1C3; [2]", "value": 0.137, "unit": "s⁻¹"}, {"measurement": "Km", "setting": "AKR1C3; [2]", "value": 2.5, "unit": "µM"}, {"measurement": "acceptance as substrate by the four human isozymes", "setting": "AKR1C1-AKR1C4", "value": "all four human isozymes catalyzed the reduction"}]}
